Measured values reported in patent US20150105252A1, “SUBSTITUTED PYRAZOLES AS HERBICIDES” (E I DU PONT DE NEMOURS AND COMPANY, priority 2013, published 2015).

Tests used:
[1] = system: Italian ryegrass; assay: Test A preemergence; format: in vivo, Lolium multiflorum
In short: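 Visual injury ratings, 0 = no effect to 100 = complete control, taken about 10 days after treatment against untreated controls. Test chemicals, in a non-phytotoxic surfactant-containing solvent, were sprayed onto soil preemergence or onto one- to two-leaf plants (2–10 cm) postemergence, in loam–sand soil under greenhouse conditions.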

[2] = system: morningglory; assay: Test F preemergence; format: in vivo, Ipomoea coccinea
From the text: (§1) Seeds of plant species selected from corn (Zea mays), soybean (Glycine max), velvetleaf (Abutilon theophrasti), lambsquarters (Chenopodium album), wild poinsettia (Euphorbia heterophylla), pigweed, palmer (palmer pigweed, Amaranthus palmeri), common waterhemp (Amaranthus rudis), surinam grass (Brachiaria decumbens), large crabgrass (Digitaria sanguinalis), crabgrass, Brazil (Brazilian crabgrass, Digitaria horizontalis), fall panicum (Panicum dichotomiflorum), giant foxtail (Setaria faberii), green foxtail (Setaria viridis), goosegrass (Eleusine indica), johnsongrass (Sorghum halepense), common ragweed (Ambrosia elation), barnyardgrass (Echinochloa crus-galli), southern sandbur (Cenchrus echinatus), arrowleaf sida (Sida rhombifolia), Italian ryegrass (Lolium multiflorum), dayflower, VA (Virginia (VA) dayflower, Commelina virginica), field bindweed (Convolvulus arvensis), cocklebur (common cocklebur, Xanthium strumarium), morningglory (Ipomoea coccinea), nightshade (eastern black nightshade, Solanum ptycanthum), kochia (Kochia scoparia), yellow nutsedge (Cyperus esculentus), and hairy beggarticks (Bidens pilosa), were planted into a silt loam soil and treated preemergence with test chemicals formulated in a non-phytotoxic solvent mixture which included a surfactant.
(§2) At the same time, plants from these crop and weed species and also horseweed (Canada horseweed, Conyza canadensis), smartweed (ladysthumb smartweed, Polygonum persicaria), waterhemp_RES1, (ALS & Triazine resistant common waterhemp, Amaranthus rudis), and waterhemp_RES2, (ALS & HPPD resistant common waterhemp, Amaranthus rudis) were treated with postemergence applications of test chemicals formulated in the same manner. Plants ranged in height from 2 to 18 cm for postemergence treatments (1- to 4-leaf stage). Treated plants and controls were maintained in a greenhouse for 14 to 21 days, after which time all species were compared to controls and visually evaluated. Plant response ratings, summarized in Table F, are based on a scale of 0 to 100 where 0 is no effect and 100 is complete control. A dash (-) response means no test result.

[3] = system: fall panicum; assay: Test F preemergence; format: in vivo, Panicum dichotomiflorum
From the text: as §1, §2

[4] = 125 g ai/ha, visual injury, 0 to 100 scale, approx. 10 days
[5] = 500 g ai/ha, visual injury after approx. 10 days, 0 to 100 scale (0 no effect, 100 complete control)
[6] = Preemergence, 16 g ai/ha, scale 0 to 100
[7] = Preemergence, 62 g ai/ha, scale 0 to 100
[8] = Preemergence, 125 g ai/ha, scale 0 to 100
[9] = Preemergence, 250 g ai/ha, scale 0 to 100
[10] = preemergence, 16 g ai/ha, scale 0 to 100, 100 is complete control

SMILES	Italian Ryegrass plant response rating [1, 4]	Italian Ryegrass plant response rating [1, 5]	Plant response rating, Morningglory [2, 7]	Plant response rating, Morningglory [2, 8]	Plant response rating, Morningglory [2, 9]	other results
CCOc1cc(C(=O)NCC(F)(F)F)nn1Cc1ccnc(OC(F)F)c1 [Compound 128]	30	100				
CCCNC(=O)c1cc(OCC)n(Cc2ccnc(OC(F)F)c2)n1 [Compound 136]	30	100				
CCCc1cc(C(=O)NC(C)C)nn1Cc1cc(C(F)(F)F)nn1C [Compound 201]			25	65	80	Plant response rating, Morningglory [2, 6]: 0; Plant response rating, Morningglory [2, 10]: 0; Plant response rating, Fall Panicum [3, 6]: 85; Plant response rating, Fall Panicum [3, 7]: 90; Plant response rating, Fall Panicum [3, 8]: 100; Plant response rating, Fall Panicum [3, 9]: 100; Plant response rating, Fall Panicum [3, 10]: 0
CCCc1cc(C(=O)NC2CC2)nn1Cc1ccnc(OC(F)F)c1 [Compound 205]		100				Italian Ryegrass plant response rating (0 to 100 scale) ([1]; 125 g ai/ha, visual injury approx. 10 days after treatment): 50
CCc1cc(C(=O)NCC(F)(F)F)nn1Cc1ccnc(Br)c1 [Compound 224]			0	0	25	
